Holding throughout (assay type): cell-based, C57BL/6 mice
One test deals with ENR+CD organoids. Put plainly: Flow cytometry analysis, 3D culture, XPO1 inhibitors. The note with it: 6-day ENR+CD organoids. The protocol:
ISC-enriched organoids cultured in 3D Matrigel with ENRCV media were passaged to 24-well plate in 3D Matrigel with ENRCV. At day zero, media were replaced to ENRCD with or without indicated compounds, and media were replaced every other day. At day six, cells were washed with basal media, and then harvested from Matrigel by mechanical disruption in TrypLE Express (ThermoFisher, 12605010) to remove Matrigel and dissociate organoids to single cells. After vigorous pipetting and incubation at 37° C. for 20 min, dissociated organoids were strained through a 35 μm cell strainer into a tube (Falcon, 352235). The cell filtrate was centrifuged again at 300×g for 3 min at 4° C. to pellet the cells. Cell pellets were resuspended in FACS buffer (2% FBS in PBS), and then transferred to an ultra low-bind 96-well plate (Corning, 7007). Cells were stained with Zombie-violet viability dye (BioLegend, 423107) at 100× for viability staining and/or antibody staining solution. FITC-conjugated antibody for lysozyme (Dako, […]) and APC-conjugated antibody for CD24 (BioLegend, 138505) were used at 100× dilution. Flow cytometry was performed using an LSR Fortessa (BD; Koch Institute Flow Cytometry Core at MIT). The data were analyzed using FlowJo v10 software.
(In general: In flow cytometry, cells or beads pass a laser one at a time.)

Test [1] concerns ENR+CD and ENR organoid populations. Put plainly: Population RNA-seq of organoids. The note with it: 3 days of treatment, all media conditions controlled, FDR<0.01. From the text:
To further assess the potential interaction of Wnt agonist CHIR99021 (C) and Notch inhibitor DAPT (D) with XPO1 inhibitors, we carried out an experiment where we assessed bulk organoid population transcriptomes (with RNA-seq) from multiple variations on growth media, XPO1 inhibitor, and duration of treatment (FIG. 12A). To characterize the resulting cell phenotypes, we used aggregate scores of geneset enrichment (based on module scoring as implemented in^7) from the in vivo Paneth and related enteroendocrine cell populations (genesets taken from^6). We see that again for both ENR+CD treated (FIG. 12B) and ENR treated (FIG. 12C) organoid populations, XPO1 inhibition drives enrichment in Paneth cell defining genes, principally at 3 days of treatment. […]
Population RNA-seq was performed using a derivative of the Smart-Seq2 protocol for single cells^1,2. […] Libraries were pooled post-Nextera and cleaned using Agencourt AMPure SPRI beads with successive 0.7× and 0.8× ratio SPRIs and sequenced with an Illumina 75 Cycle NextSeq500/550v2 kit (Illumina FC-404-2005) with loading density at 2.2 pM, with paired end 35 cycle read structure. Samples were sequenced at an average read depth of 8.44 million reads per sample and a total of 96 samples. […]

For test [2], the system named is organoids differentiated under ENR+CV, ENR+CD, or ENR. Put plainly: Western blotting for LYZ in organoids. The note with it: six days in ENR+CV. From the text: ISC-enriched organoids cultured in 3D Matrigel with ENRCV media were passaged to 24-well plate in 3D Matrigel with ENRCV. At day zero, media were replaced to ENR or ENRCD with or without indicated compounds, and media were replaced every other day. At day six, cells were harvested from Matrigel by mechanical disruption and suspended in basal media. Cell pellets were lysed with Pierce® IP lysis buffer (ThermoFisher, 87787) containing Halt™ Protease Inhibitor Cocktail, EDTA-Free (ThermoFisher, 87785) after 3-minute centrifuge at 300×g at 4° C. Cell extracts were resolved by NuPAGE® SDS-PAGE Gel system (ThermoFisher) and electroblotted onto polyvinylidene difluoride membranes using Criterion™ Blotter (Biorad). The membranes were blocked with 2% Blotting-Grade Blocker (Biorad, 1706404) in TBS-T (50 mM Tris-HCl, 150 mM NaCl, and 0.1% Tween 20, pH 8.0) and then probed with appropriate antibodies. Detection was performed using ECL Select™ Western Blotting Detection Reagent (Amersham, 45-000-999) and ImageQuant LAS4000 (GE Healthcare).
Background: A western blot detects proteins with antibodies after separation by electrophoresis.

The subject of test [3] is ISC-enriched organoids in ENR+CD. In words: 384-well secondary screen in ENR+CD incl. early vs. full treatment, secreted LYZ (LYZ.NS, LYZ.S). The conditions noted are these: for validation in secondary screen (SSMD above cutoff for both LYZ.NS and LYZ.S): 6-day ENR+CD+treatment vs ENR+CD+DMSO, cutoff 0.89, 8 replicates. The text has this: (§1) We again assessed treatment effect size with replicate SSMD (using a difference between well replicates and median assay value for all same-plate control wells—see Materials and Methods, High-throughput screening: 384-well secondary screen format and early vs. full treatment analysis) and hits were considered statistically validated by an SSMD greater than the false-positive-derived cutoffs (βα1=0.89 for 8 replicates with alpha=0.05; see Materials and Methods, High-throughput screening: 384-well secondary screen format and early vs. full treatment analysis) for both LYZ.NS and LYZ.S assays (FIG. 7A). Per this new cutoff, 10 dose-treatment combinations corresponding to 7 small molecules were chosen as hits, with every passing dose-treatment having a greater than 0 ATP effect size.
For 384-well plate high-throughput screening, ISC-enriched organoids were passaged and split to single cells with TyrpLE (Thermo Fisher Scientific) and cultured for 2-3 days in ENR+CVY prior to transfer to a “2.5-D” 384-well plate culture system. To prepare for “2.5D” plating, cell-laden Matrigel and media were homogenized via mechanical disruption and centrifuged at 300 g for 3 min at 4° C. Supernatant was removed and the pellet washed and spun in basal culture medium repeatedly until the cloudy Matrigel above the cell pellet was gone. On the final wash, pellet was resuspended in basal culture medium, the number of organoids counted, and the cell pellet was resuspended in ENR+CD medium at ˜7 clusters/μL. 384-well plates were first filled with 10 μL of 70% Matrigel (30% basal media) coating in each well using a Tecan Evo 150 Liquid Handling Deck, and allowed to gel at 37° C. for 5 minutes. Then 30 μL of cell-laden media was plated at the center of each well of 384-well plates with the liquid handler, and the plates were spun down at 50 g for 1 minute to embed organoids on the Matrigel surface. Compound libraries were pinned into prepped cell plates using 50 nL pins into 30 μL media/well. Cells were cultured at 37° C. with 5% CO2 for six days in ENR+CD medium supplemented with the tested compounds with a media change at three days. On day six, lysozyme secretion and cell viability were assessed using Lysozyme Assay Kit (EnzChek) and CellTiter-Glo 3D Cell Viability Assay (Promega), respectively, according to the manufacturers' protocols. Briefly, screen plates were washed 3× with FluoroBrite basal media (2 mM GlutaMAX and 10 mM HEPES in FluoroBrite DMEM (Thermo Fisher Scientific)) using a BioTek 406 plate washer with 10 min incubations followed by a 1 min centrifugation at 200 g to settle media between washes. After removal of the third wash, 30 μL of non-stimulated FluoroBrite basal media was added to each screen well using a Tecan Evo 150 Liquid Handling Deck from a non-stimulated treatment master plate, and plates were incubated for 30 min at 37° C. After 30 minutes, the top 15 μL of media from each well of the screen plate was transferred to a non-stimulated LYZ assay plate containing 15 μL of 20× DQ LYZ assay working solution using a Tecan Evo 150 Liquid Handling Deck. The non-stimulated LYZ assay plate was covered, shaken for 10 min, incubated for 50 min at 37° C., then fluorescence measured (shake 10 s; […]/518 nm) using a Tecan M1000 Plate Reader. After the media transfer to the non-stimulated LYZ assay plate, the remaining media was removed from the screen plate and 30 μL of Stimulated FluoroBrite basal media (supplemented with 10 μM CCh) was added to each screen well using a Tecan Evo 150 Liquid Handling Deck from a stimulated treatment master plate, and plates were incubated for 30 min at 37° C. After 30 minutes, the top 15 μL of media from each well of the screen plate was transferred to a stimulated LYZ assay plate containing 15 μL of 20× DQ LYZ assay working solution using a Tecan Evo 150 Liquid Handling Deck. […]

Test [4] has the same test system. In words: 384-well primary screen of 6-day PC differentiation, secreted LYZ (LYZ.NS, LYZ.S). The conditions noted are these: 6-day ENR+CD+library treatment; SSMD > 0.997 and z-scored FC > 1.282. The protocol:
This library offers translational advantages as many of the molecules are either presently used in the clinic for a wide variety of conditions or have been used in clinical trials and animal models.
To prepare for “2.5D” plating, cell-laden Matrigel and media were homogenized via mechanical disruption and centrifuged at 300 g for 3 min at 4° C. Supernatant was removed and the pellet washed and spun in basal culture medium repeatedly until the cloudy Matrigel above the cell pellet was gone. On the final wash, pellet was resuspended in basal culture medium, the number of organoids counted, and the cell pellet was resuspended in ENR+CD medium at ˜7 clusters/μL. 384-well plates were first filled with 10 μL of 70% Matrigel (30% basal media) coating in each well using a Tecan Evo 150 Liquid Handling Deck, and allowed to gel at 37° C. for 5 minutes. […] Compound libraries were pinned into prepped cell plates using 50 nL pins into 30 μL media/well. Cells were cultured at 37° C. with 5% CO2 for six days in ENR+CD medium supplemented with the tested compounds with a media change at three days. On day six, lysozyme secretion and cell viability were assessed using Lysozyme Assay Kit (EnzChek) and CellTiter-Glo 3D Cell Viability Assay (Promega), respectively, according to the manufacturers' protocols. […]

The test system of test [5] is mature PC (CD24-mid & LYZ+) and secretory precursor (CD24-hi) populations. In words: Flow cytometry profiling of organoids in 2.5-D (CD24, LYZ). The conditions noted are these: 6-day ENR+CD+treatment, fraction of viable cells, n=3 bio. donors.
Excerpt: Cells processed for flow cytometry were first gated to exclude potential debris or doublets (via widely accepted forward and side scatter gating), and subsequently gated for viability (via Zombie-violet viability dye exclusion), all viable cells were considered for CD24 & LYZ expression analysis. […] For flow cytometry profiling of the 6 validate small molecules, ISC-enriched ‘small clusters’ in 3D Matrigel culture were passaged to a “2.5D” 96-well plate culture system for six days of ENR, or ENR+CD+drug culture in the same manner as described previously with the exception of plating in 96-well plates prepared with a polymerized 70% Matrigel coating in each well. Plates were centrifuged at 50 g for 1 min at 4° C. to allow for cells to partially embed in Matrigel coating. Drugs were pinned into their respective wells using the Tecan from a drug stamp plate. Media was changed at day three, including pinning of the drug treatments. At day six, cells were washed 3× with basal media, then harvested from Matrigel by mechanical disruption in TrypLE Express to remove Matrigel and dissociate organoids to single cells. After vigorous pipetting and incubation at 37° C. for 20 mins, dissociated organoids were strained through a 96-well filter plate with a 30-40 μm filter (Pall) into an ultra low-bind 96-well plate (Costar) by centrifuging at 300×g for 3 mins at 4° C. The cell filtrate was centrifuged again at 300×g for 3 mins at 4° C. to pellet the cells. Cell pellets were resuspended in FACS buffer (2% FBS in PBS0), then transferred to an ultra low-bind 96-well plate for flow prep. Cells were stained with Zombie-violet viability dye (BioLegend) at 100× for viability staining and/or antibody staining solution. FITC-conjugated antibody for lysozyme and APC-conjugated antibody for CD24 were used at 100× dilution (BioLegend). Flow cytometry was performed using a LSR Fortessa (BD; Koch Institute Flow Cytometry Core at MIT). Flow cytometry data was analyzed using FlowJo X v10.1 software.
Test [6] has as its system conventional organoid (ENR). In words: 384-well screen in conventional organoid (ENR), secreted LYZ (LYZ.NS, LYZ.S). The note with it: 6-day ENR+treatment, single treatment-dose.
The test system of test [7] is ISC-enriched organoids in ENR+CD. In words: 384-well secondary screen in ENR+CD, ATP assay. The note with it: 100 nM.
Excerpt: as §1, with “Per this new cutoff, 10 dose-treatment combinations corresponding to 7 small molecules were chosen as hits, with every passing dose-treatment having a greater than 0 ATP effect size.” left out
For 384-well plate high-throughput screening, ISC-enriched organoids were passaged and split to single cells with TyrpLE (Thermo Fisher Scientific) and cultured for 2-3 days in ENR+CVY prior to transfer to a “2.5-D” 384-well plate culture system. […] On the final wash, pellet was resuspended in basal culture medium, the number of organoids counted, and the cell pellet was resuspended in ENR+CD medium at ˜7 clusters/μL. […] On day six, lysozyme secretion and cell viability were assessed using Lysozyme Assay Kit (EnzChek) and CellTiter-Glo 3D Cell Viability Assay (Promega), respectively, according to the manufacturers' protocols. […]

Structures are written as SMILES.

The values that follow come from patent US20200237852A1, “Small Molecule Enhancers of Paneth Cell Function and Differentiation” (Massachusetts Institute of Technology, priority 2019, published 2020).

Consider `NC(=O)/C(=C/n1cnc(-c2cc(C(F)(F)F)cc(C(F)(F)F)c2)n1)c1cncnc1` [KPT-8602], for which, in the test on ENR+CD organoids, the “Paneth cell representation by flow cytometry” value is “statistically significant increases in Paneth cell representation”. Also, in test [1], the “identity of the majority of significantly up-regulated genes relative to no treatment (DESeq2)” value was “known Paneth cell lineage-defining genes”. Also, in test [2], the “LYZ abundance on a per-mass protein normalized basis (western blot)” value was “appreciably increase LYZ abundance”.

Consider `Cc1cn(-c2cc(NC(=O)c3ccc(C)c(Nc4nccc(-c5cccnc5)n4)c3)cc(C(F)(F)F)c2)cn1` [Nilotinib], for which the “biological potency compared with Bosutinib (LYZ assays)” value in test [3] (6-day ENR+CD+treatment) is listed as “the more biologically potent”. The “validation in secondary screen (SSMD above cutoff for both LYZ.NS and LYZ.S)” value in test [3] is on record as “multiple validated doses”. In addition, in test [4], the “primary screen hit status in LYZ.NS and LYZ.S assays” value is “strongest LYZ assay-performing treatment-dose”. In addition, in test [5], the “secretory precursor (CD24-hi) population relative to control” value is recorded as “higher proportion”. In test [6], the “LYZ.S reading versus ENR+DMSO” value is “significantly lower”.

For the molecule `Cc1[nH]c(/C=C2\C(=O)Nc3ccc(S(=O)(=O)Cc4c(Cl)cccc4Cl)cc32)c(C)c1C(=O)N1CCC[C@@H]1CN1CCCC1` [PHA-665752], the “validation in secondary screen (SSMD above cutoff for both LYZ.NS and LYZ.S)” value in test [3] is given as “multiple validated doses”. In test [3] (ENR+CD, 100 nM), the “LYZ.NS/ATP, early versus full treatment” value is “significant difference (adj. p<0.05) between early and full”; the “LYZ.S/ATP, early versus full treatment” value is reported as “suggestive trend”. Besides, in test [3] (ENR+CD, maximal validated dose), the “improvement in function, early (first 3 days) versus full 6-day treatment, LYZ.NS and LYZ.S assays” value is on record as “significantly (adj. p<0.05) lower improvement in function with early treatment versus full”. Also, in test [7], the “ATP alone, early versus full treatment” value is listed as “no difference in ATP alone”. The “LYZ.NS reading versus ENR+DMSO” value in test [6] is “significantly lower LYZ.NS”.

For `NC(=O)c1ccc(-c2nc(-c3ccc4c(c3)OCO4)c(-c3ccccn3)[nH]2)cc1` [SB431542], the “LYZ.NS/ATP, early versus full treatment” value in test [3] (ENR+CD, 240 nM) is “significant (adj. p<0.05) difference between early and full treatment”. In addition, in test [3] (ENR+CD, across all doses), the “ATP-normalized LYZ assays (LYZ.NS/ATP, LYZ.S/ATP), early versus full treatment” value is listed as “suggestive trend across all doses”. Also, in test [4], the “primary screen hit status in LYZ.NS and LYZ.S assays” value is on record as “strongest LYZ assay-performing treatment-dose”.
